What was measured:
[1] = target: T1, GOX1462 (Gluconobacter oxydans, UniProt Q5FQY5); test: HPLC of E-ascladiol formation by recombinant E. coli cells; assay type: cell-based, Escherichia coli; settings: 10 µg/mL patulin; 500 µM NADPH; 20 mM MES pH 5; 30 °C; 24 h
T1 construct: full-length in pET28a, whole E. coli LOBSTR-BL21 (DE3) cells; not purified (aggregated); native N-terminus by primer MQYRQLG

[2] = target: T2, GOX0716 (Gluconobacter oxydans, UniProt Q5FT03); test: as above; assay type: cell-based, recombinant Escherichia coli; settings: 10 µg/mL patulin; 500 µM NADPH; 20 mM MES pH 5; 30 °C; 24 h
T2 construct: full-length in pET28a, whole E. coli LOBSTR-BL21 (DE3) cells; not purified; native N-terminus by primer MADHSI

[3] = target: T3, GOX1899 (Gluconobacter oxydans, UniProt Q5FPQ9); test: NADPH oxidation at […] nm, Michaelis-Menten fit; assay type: biochemical; settings: read-out: apparent KM; 250 µM NADPH; pH 6.0 (0.1 M Tris, 0.05 M MES, 0.05 M acetic acid); 25 °C
T3 construct: full-length, N-terminal His-tag (pET28a), E. coli LOBSTR-BL21 (DE3), Ni-NTA; about 29 kDa; native N-terminus by primer MTTDNI

[4] = target: T4, GOX0525 (Gluconobacter oxydans, UniProt Q5FTJ3); test: NADPH oxidation at […] nm, Michaelis-Menten fit; assay type: biochemical; settings: read-out: apparent KM; 250 µM NADPH; pH 6.0 (0.1 M Tris, 0.05 M MES, 0.05 M acetic acid); 25 °C
T4 construct: full-length, N-terminal His-tag (pET28a), E. coli LOBSTR-BL21 (DE3), Ni-NTA; about 29 kDa; native N-terminus by primer MTHRVAL
T4 sequence (Q5FTJ3 entry or part of it): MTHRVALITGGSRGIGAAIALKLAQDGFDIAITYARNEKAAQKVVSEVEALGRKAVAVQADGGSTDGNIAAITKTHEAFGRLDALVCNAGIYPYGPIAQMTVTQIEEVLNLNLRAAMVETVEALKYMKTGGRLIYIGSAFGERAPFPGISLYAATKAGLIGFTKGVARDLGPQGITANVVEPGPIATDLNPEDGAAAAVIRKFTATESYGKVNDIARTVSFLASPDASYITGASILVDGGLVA

T2 sequence (Q5FT03 entry or part of it): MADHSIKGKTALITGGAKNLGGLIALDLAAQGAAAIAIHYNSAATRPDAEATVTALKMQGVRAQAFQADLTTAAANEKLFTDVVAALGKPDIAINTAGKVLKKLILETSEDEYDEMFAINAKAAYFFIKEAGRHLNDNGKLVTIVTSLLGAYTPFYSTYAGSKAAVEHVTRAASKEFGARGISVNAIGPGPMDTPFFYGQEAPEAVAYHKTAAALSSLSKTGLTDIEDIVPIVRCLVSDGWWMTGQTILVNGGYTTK
T1 sequence (Q5FQY5 entry or part of it): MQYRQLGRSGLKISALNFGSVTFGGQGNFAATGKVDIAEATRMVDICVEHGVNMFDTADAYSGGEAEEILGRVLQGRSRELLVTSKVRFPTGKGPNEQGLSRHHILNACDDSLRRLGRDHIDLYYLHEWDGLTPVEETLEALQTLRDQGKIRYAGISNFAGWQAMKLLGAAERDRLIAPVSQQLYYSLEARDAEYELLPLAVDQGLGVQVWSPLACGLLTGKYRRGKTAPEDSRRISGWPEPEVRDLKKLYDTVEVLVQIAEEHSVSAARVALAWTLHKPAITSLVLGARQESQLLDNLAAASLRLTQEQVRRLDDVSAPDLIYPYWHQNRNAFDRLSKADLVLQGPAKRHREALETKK
T3 sequence (Q5FPQ9 entry or part of it): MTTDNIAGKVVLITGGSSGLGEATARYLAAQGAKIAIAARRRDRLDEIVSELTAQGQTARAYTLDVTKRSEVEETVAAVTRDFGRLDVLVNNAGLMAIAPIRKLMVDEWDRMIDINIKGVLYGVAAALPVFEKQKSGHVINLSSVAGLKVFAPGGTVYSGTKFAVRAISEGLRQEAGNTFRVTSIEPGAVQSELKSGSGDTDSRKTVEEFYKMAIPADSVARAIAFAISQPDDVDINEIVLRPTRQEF

`O=C1C=C2C(=CCOC2O)O1` (stereo not shown) [patulin, 4-hydroxy-4H-furo [3,2-c]pyran-2(6H)-one] was tested, and the “HPLC of E-ascladiol formation by recombinant E. coli cells” value [1] was “capable of producing E-ascladiol were those containing GOX0525, GOX1899, GOX1462 and GOX0716”, the “HPLC of E-ascladiol formation by recombinant E. coli cells” value [2] was “capable of producing E-ascladiol were those containing GOX0525, GOX1899, GOX1462 and GOX0716” and the Km [3] was 7.26 ± 0.54 mM. For the same compound, the Km [4] was 8.64 ± 0.89 mM.

From paper PMC9323132, “Characterization of Two Dehydrogenases from Gluconobacter oxydans Involved in the Transformation of Patulin to Ascladiol” (Toxins, 2022)
